Test results as given in ChEMBL document CHEMBL1201862, “PubChem BioAssay data set” (2004).
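The compound was tested at five concentrations on cells cultured in 96-well plates, with a 48-hour exposure period. The concentration for 50% growth inhibition is given as GI50.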 The source made the active and inactive calls. Rule as the data show it: active = GI50 up to about 1.1 µM and inactive = higher.

Key:
Test in all cases: growth of human tumour cells (NCI), 48 h
[1] = system: RPMI-8226
[2] = system: U-251
[3] = system: Malme-3M
[4] = system: UACC-257
[5] = system: RXF 393
[6] = system: SNB-75
[7] = system: SK-MEL-28
[8] = system: COLO 205
[9] = system: EKVX
[10] = system: A498
[11] = system: M14
[12] = system: HCC 2998
[13] = system: NCI/ADR-RES
[14] = system: SF-268
[15] = system: MCF7
[16] = system: SW-620
[17] = system: CCRF-CEM
[18] = system: MOLT-4
[19] = system: OVCAR-8
[20] = system: SK-MEL-2

Compound | GI50 [1] | GI50 [2] | GI50 [3] | GI50 [4] | GI50 [5] | GI50 [6] | GI50 [7] | GI50 [8] | GI50 [9] | GI50 [10] | GI50 [11] | GI50 [12] | GI50 [13] | GI50 [14] | GI50 [15] | GI50 [16] | GI50 [17] | GI50 [18] | GI50 [19] | GI50 [20]
O=C1Nc2ccccc2/C1=c1\[nH]c(=O)/c(=C\c2ccc(OCc3ccccc3)cn2)[nH]c1=O | > 100 µM (inactive) | 17.9 µM (inactive) | 32.4 µM (inactive) | > 100 µM (inactive) | 8.17 µM (inactive) | 4.21 µM (inactive) | > 100 µM (inactive) | > 100 µM (inactive) | 86.7 µM (inactive) | 27.3 µM (inactive) | 56.6 µM (inactive) | > 100 µM (inactive) | 91.6 µM (inactive) | 21.2 µM (inactive) | > 100 µM (inactive) | > 100 µM (inactive) | 39.5 µM (inactive) | 52.8 µM (inactive) | 78.7 µM (inactive) | 38.2 µM (inactive)
CC1(C)CC2=C(Sc3ccccc3N2)C(=O)C1C(=O)C(=O)Nc1cc(Cl)ccc1Cl (stereo not drawn) | > 100 µM (inactive) | > 100 µM (inactive) | > 100 µM (inactive) | > 100 µM (inactive) | > 100 µM (inactive) | 38.2 µM (inactive) | > 100 µM (inactive) | > 100 µM (inactive) | > 100 µM (inactive) | > 100 µM (inactive) | > 100 µM (inactive) | > 100 µM (inactive) | 63.2 µM (inactive) | > 100 µM (inactive) | > 100 µM (inactive) | > 100 µM (inactive) | > 100 µM (inactive) | 60 µM (inactive) | > 100 µM (inactive) | > 100 µM (inactive)
COc1cc(C(c2ccc3c(c2)OCO3)C2SCCCS2)cc(OC)c1OC (stereo not drawn) | 3.27 µM (inactive) | 3.01 µM (inactive) | 3.36 µM (inactive) | 6.08 µM (inactive) | 1.35 µM (inactive) | 2.21 µM (inactive) | 4.91 µM (inactive) | 1.63 µM (inactive) | 2.79 µM (inactive) | 1.9 µM (inactive) | 3.6 µM (inactive) | 2.99 µM (inactive) | 2.15 µM (inactive) | 6.21 µM (inactive) | 2.62 µM (inactive) | 3.11 µM (inactive) | 1.49 µM (inactive) | 2.87 µM (inactive) | 4.71 µM (inactive) | 77.4 µM (inactive)
Cc1cc[n+]2c(c1)-c1cc(C)cc[n+]1CC2 | > 100 µM (inactive) | > 100 µM (inactive) | 99.5 µM (inactive) | > 100 µM (inactive) | > 100 µM (inactive) | > 100 µM (inactive) | > 100 µM (inactive) | 22.6 µM (inactive) | > 100 µM (inactive) | > 100 µM (inactive) | > 100 µM (inactive) | > 100 µM (inactive) | > 100 µM (inactive) | > 100 µM (inactive) | > 100 µM (inactive) | > 100 µM (inactive) | > 22.7 µM (inactive) | > 100 µM (inactive) | > 66.5 µM (inactive) | > 100 µM (inactive)
Cn1c(=S)sc2nc3ccccc3n2c1=S | 3.78 µM (inactive) | 11.5 µM (inactive) | 13.9 µM (inactive) | 12.3 µM (inactive) | 10.9 µM (inactive) | 16.5 µM (inactive) | 12.4 µM (inactive) | 9.51 µM (inactive) | 17.3 µM (inactive) | 19.3 µM (inactive) | 4.47 µM (inactive) | 19.6 µM (inactive) | 13.4 µM (inactive) | 10.9 µM (inactive) | 2.26 µM (inactive) | 12 µM (inactive) | 3.52 µM (inactive) | 5.36 µM (inactive) | 14.3 µM (inactive) | 51.1 µM (inactive)
COc1ccc(-c2cc(-c3ccc(Nc4ccnc5cc(C(F)(F)F)ccc45)cc3)[nH]c(=O)c2C#N)c2ccccc12 | > 100 µM (inactive) | 10.2 µM (inactive) | > 41.2 µM (inactive) | > 100 µM (inactive) | 15.2 µM (inactive) | 11.2 µM (inactive) | > 59.7 µM (inactive) | > 37.7 µM (inactive) | > 100 µM (inactive) | > 43 µM (inactive) | > 42.7 µM (inactive) | > 100 µM (inactive) | > 100 µM (inactive) | 38.1 µM (inactive) | > 29.5 µM (inactive) | > 100 µM (inactive) | > 20.9 µM (inactive) | > 100 µM (inactive) | > 46.3 µM (inactive) | > 56 µM (inactive)
NN=C(CC(O)(C(F)(F)Cl)C(F)(F)Cl)CC(O)(C(F)(F)Cl)C(F)(F)Cl | > 10 µM (inactive) | > 10 µM (inactive) | > 10 µM (inactive) | > 10 µM (inactive) | > 10 µM (inactive) | > 10 µM (inactive) | > 10 µM (inactive) | > 10 µM (inactive) | > 10 µM (inactive) | > 10 µM (inactive) | > 10 µM (inactive) | > 10 µM (inactive) | > 10 µM (inactive) | > 10 µM (inactive) | > 10 µM (inactive) | > 10 µM (inactive) | > 10 µM (inactive) | > 10 µM (inactive) | > 10 µM (inactive) | > 10 µM (inactive)
Cc1cc(S(=O)(=O)Nc2cc(N)n[nH]2)c(SCc2nc(N)nc(N(C)C)n2)cc1Cl | > 10 µM (inactive) | > 10 µM (inactive) | > 10 µM (inactive) | > 10 µM (inactive) | > 10 µM (inactive) | > 10 µM (inactive) | > 10 µM (inactive) | > 10 µM (inactive) | > 10 µM (inactive) | > 10 µM (inactive) | > 10 µM (inactive) | > 10 µM (inactive) | > 10 µM (inactive) | > 10 µM (inactive) | > 10 µM (inactive) | > 10 µM (inactive) | > 10 µM (inactive) | > 10 µM (inactive) | > 10 µM (inactive) | > 10 µM (inactive)
O=C1/C(=C/c2cccc([N+](=O)[O-])c2)N=C(c2ccccc2)N1c1ccc2c(c1)Sc1cc(N3C(=O)/C(=C/c4cccc([N+](=O)[O-])c4)N=C3c3ccccc3)ccc1N2 | 26.7 µM (inactive) | 24.7 µM (inactive) | 21.4 µM (inactive) | 18.4 µM (inactive) | 21.6 µM (inactive) | 16.7 µM (inactive) | 47.9 µM (inactive) | 40.9 µM (inactive) | 25.4 µM (inactive) | 23.6 µM (inactive) | 32.9 µM (inactive) | > 100 µM (inactive) | 34.1 µM (inactive) | 20.1 µM (inactive) | 19.2 µM (inactive) | 31.2 µM (inactive) | 16.9 µM (inactive) | 36.9 µM (inactive) | 29.2 µM (inactive) | 20 µM (inactive)
CC1(C)C(=O)/C(=C/c2ccccc2)C(C)(C)C1(C)C | 31.4 µM (inactive) | 55.5 µM (inactive) | > 71.3 µM (inactive) | > 100 µM (inactive) | > 100 µM (inactive) | 46.8 µM (inactive) | > 100 µM (inactive) | > 100 µM (inactive) | > 58.5 µM (inactive) | 36.1 µM (inactive) | 85.1 µM (inactive) | > 91.4 µM (inactive) | > 90.6 µM (inactive) | – | 35.2 µM (inactive) | 60.3 µM (inactive) | 28.4 µM (inactive) | 56.2 µM (inactive) | > 100 µM (inactive) | > 43.5 µM (inactive)
CC12CCC(=O)C=C1CCC1C2C(O)CC2(C)C(c3csc(N)n3)CCC12.O=S(=O)(O)c1ccc(Br)cc1 (stereo not drawn) | > 100 µM (inactive) | > 100 µM (inactive) | > 100 µM (inactive) | > 100 µM (inactive) | > 100 µM (inactive) | > 100 µM (inactive) | > 100 µM (inactive) | > 100 µM (inactive) | > 100 µM (inactive) | > 100 µM (inactive) | > 100 µM (inactive) | > 100 µM (inactive) | > 100 µM (inactive) | > 100 µM (inactive) | > 100 µM (inactive) | > 100 µM (inactive) | < 0.01 µM (active) | > 100 µM (inactive) | > 100 µM (inactive) | > 100 µM (inactive)
O=C(NCCCCCN1CCC2(CCCCC2)CC1)C(C1CCCCC1)C1CCCCC1 | 2.19 µM (inactive) | 4.34 µM (inactive) | 1.75 µM (inactive) | 1.82 µM (inactive) | 4.24 µM (inactive) | 4.12 µM (inactive) | 1.83 µM (inactive) | 1.45 µM (inactive) | 3.6 µM (inactive) | 4.26 µM (inactive) | 1.68 µM (inactive) | 1.3 µM (inactive) | 3.18 µM (inactive) | 5.35 µM (inactive) | 2.13 µM (inactive) | 2.6 µM (inactive) | 2.99 µM (inactive) | 1.9 µM (inactive) | 2.72 µM (inactive) | 2.21 µM (inactive)
CCC(=O)NCC1CCCN2CCCCC12 (stereo not drawn) | > 100 µM (inactive) | > 100 µM (inactive) | 44.7 µM (inactive) | > 100 µM (inactive) | > 100 µM (inactive) | > 100 µM (inactive) | > 100 µM (inactive) | > 100 µM (inactive) | > 100 µM (inactive) | > 100 µM (inactive) | – | > 100 µM (inactive) | > 100 µM (inactive) | > 100 µM (inactive) | > 100 µM (inactive) | > 100 µM (inactive) | > 100 µM (inactive) | > 100 µM (inactive) | > 100 µM (inactive) | > 100 µM (inactive)
NCC(=O)Nc1ccc(S(=O)(=O)O)c2cc(S(=O)(=O)O)cc(S(=O)(=O)O)c12 | > 100 µM (inactive) | > 100 µM (inactive) | > 100 µM (inactive) | > 100 µM (inactive) | > 100 µM (inactive) | > 100 µM (inactive) | > 100 µM (inactive) | > 100 µM (inactive) | > 100 µM (inactive) | > 100 µM (inactive) | > 100 µM (inactive) | > 100 µM (inactive) | > 100 µM (inactive) | > 100 µM (inactive) | > 100 µM (inactive) | > 100 µM (inactive) | > 100 µM (inactive) | > 100 µM (inactive) | > 100 µM (inactive) | > 100 µM (inactive)
